This passage reports Ki and EC50 results from patent publication US9073855B2, “BCL-2 selective apoptosis-inducing agents for the treatment of cancer and immune diseases” (AbbVie Inc., priority 2008, dated 2015).

Test [1] deals with GST-Bcl-2 (Homo sapiens, UniProt P10415). As to the kind of experiment: TR-FRET binding assay, GST-Bcl-2 with F-Bak peptide probe. The conditions noted are these: TR-FRET Binding Affinity, GST-Bcl-2, F-Bak peptide probe. Put shortly:
(§1)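 Displacement of a fluorescein-labelled Bak peptide from the GST-tagged protein was followed by time-resolved FRET with a terbium anti-GST donor after 3 h incubation at room temperature. Inhibition constants were calculated with Wang's equation.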
(TR-FRET usually uses a lanthanide donor and a delayed reading to cut background.)

Test [2] relates to FL5.12/Bcl-2 cells. As to the kind of experiment: FL5.12/Bcl-2 cell viability assay under IL-3 withdrawal (CellTitre Glo). Format: cell-based, murine. The note with it: Mus musculus, IL-3 withdrawn 48 hrs, then 24 hrs with compound. Put shortly:
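Murine IL-3-dependent FL5.12 cells stably overexpressing Bcl-2 were deprived of IL-3 (WEHI-3B conditioned medium) for 48 h, then exposed to various compound concentrations for 24 h at 37 °C. Viability read by CellTiter-Glo luminescence.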

In test [3] the test system is Canine platelets. As to the kind of experiment: Platelet cell viability assay (platelet-rich plasma, Cell Titer Glo). Format: cell-based. The note with it: Canis lupus familiaris, 5 h, isolated canine platelets ex vivo, five hours at 37° C. Here is the method: After the incubation, platelets were equilibrated to room temperature for 20 minutes and then an equal volume of Cell Titer Glo reagent (Promega Corporation) was added. Samples were mixed for two minutes and then allowed to equilibrate for an additional 10 minutes at room temperature. The luminescence generated from the samples was quantitated using an LJL Analyst plate reader.
The effect of compounds on platelet survival can be directly evaluated ex vivo by examining the viability of isolated canine platelets in the presence of various concentrations of compound.

Test [4] deals with GST-Bcl-XL (Homo sapiens, UniProt Q07817). Nature of the test: TR-FRET binding assay, GST-Bcl-XL with F-Bak peptide probe. The conditions noted are these: TR-FRET Binding Affinity, GST-Bcl-XL, F-Bak peptide probe. Put shortly: as §1
Sequence of GST-Bcl-XL (Q07817 whole entry): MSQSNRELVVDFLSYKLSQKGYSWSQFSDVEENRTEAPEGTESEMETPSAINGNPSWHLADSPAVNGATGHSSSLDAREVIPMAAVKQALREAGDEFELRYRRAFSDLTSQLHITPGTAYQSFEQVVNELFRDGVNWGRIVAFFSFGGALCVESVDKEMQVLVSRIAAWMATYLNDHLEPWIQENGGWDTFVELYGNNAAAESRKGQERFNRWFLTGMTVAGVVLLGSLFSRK

Sequence of GST-Bcl-2 (P10415 whole entry): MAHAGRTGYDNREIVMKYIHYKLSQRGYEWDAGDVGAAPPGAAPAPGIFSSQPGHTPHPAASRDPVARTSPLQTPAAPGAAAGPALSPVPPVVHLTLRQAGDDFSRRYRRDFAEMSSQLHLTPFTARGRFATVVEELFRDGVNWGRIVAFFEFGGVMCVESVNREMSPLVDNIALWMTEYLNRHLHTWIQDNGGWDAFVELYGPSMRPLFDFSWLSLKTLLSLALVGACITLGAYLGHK

The Ki is the equilibrium dissociation constant of an inhibitor or competing ligand from its target. Usually EC50 stands for the midpoint of the concentration-response curve. Take `CC1(C)CCC(CN2CCN(c3ccc(C(=O)NS(=O)(=O)c4ccc(NCCCN5CCOCC5)c([N+](=O)[O-])c4)c(Oc4ccc5c(c4)CCCN5)c3)CC2)=C(c2ccc(Cl)cc2)C1` [Example 22, 4-(4-{[2-(4-chlorophenyl)-4,4-dimethylcyclohex-1-en-1-yl]methyl}piperazin-1-yl)-N-({4-[(3-morpholin-4-ylpropyl)amino]-3-nitrophenyl}sulfonyl)-2-(1,2,3,4-tetrahydroquinolin-6-yloxy)benzamide]: the Ki in test [1] worked out at 6.22 nM; in test [4], 125 nM. Further, the EC50 in test [2] was 825 nM; in test [3] it was more than 50000 nM.
As for `CN1CCC(Nc2ccc(S(=O)(=O)NC(=O)c3ccc(N4CCN(CC5=C(c6ccc(Cl)cc6)CC(C)(C)CC5)CC4)cc3Oc3ccc4c(c3)CCCN4)cc2[N+](=O)[O-])CC1` [Example 23, 4-(4-{[2-(4-chlorophenyl)-4,4-dimethylcyclohex-1-en-1-yl]methyl}piperazin-1-yl)-N-({4-[(1-methylpiperidin-4-yl)amino]-3-nitrophenyl}sulfonyl)-2-(1,2,3,4-tetrahydroquinolin-6-yloxy)benzamide], the Ki in test [1] was 6.64 nM; in test [4], 168 nM. Further, the EC50 is 1440 nM in test [2] and more than 50000 nM in test [3].
`O=C(NS(=O)(=O)c1ccc(NCC2CCOCC2)c([N+](=O)[O-])c1)c1ccc(N2CCN(Cc3cc(CN4CCCC4)ccc3-c3ccc(Cl)cc3)CC2)cc1Oc1cccc2[nH]ccc12` [Example 24, 4-(4-{[4′-chloro-4-(pyrrolidin-1-ylmethyl)-1,1′-biphenyl-2-yl]methyl}piperazin-1-yl)-2-(1H-indol-4-yloxy)-N-({3-nitro-4-[(tetrahydro-2H-pyran-4-ylmethyl)amino]phenyl}sulfonyl)benzamide]: the inhibition constant Ki in test [1] is 0.194 nM; in test [4], more than 660 nM. Also, the values for the EC50 in test [2] and in test [3] were 55 nM and more than 50000 nM, respectively.
The like results for `O=C(NS(=O)(=O)c1ccc(NCC2CCOCC2)c([N+](=O)[O-])c1)c1ccc(N2CCN(Cc3cc(CCN4CCCC4)ccc3-c3ccc(Cl)cc3)CC2)cc1Oc1cccc2[nH]ccc12` [Example 25, 4-(4-{[4′-chloro-4-(2-pyrrolidin-1-ylethyl)-1,1′-biphenyl-2-yl]methyl}piperazin-1-yl)-2-(1H-indol-4-yloxy)-N-({3-nitro-4-[(tetrahydro-2H-pyran-4-ylmethyl)amino]phenyl}sulfonyl)benzamide] were, in that order, 0.05 nM, 205 nM, 49 nM and more than 50000 nM.
`CC1(C)CCC(CN2CCN(c3ccc(C(=O)NS(=O)(=O)c4ccc(NC5CCN(C6CCCC6)CC5)c([N+](=O)[O-])c4)c(Oc4ccc5[nH]ccc5c4)c3)CC2)=C(c2ccc(Cl)cc2)C1` [Example 26, 4-(4-{[2-(4-chlorophenyl)-4,4-dimethylcyclohex-1-en-1-yl]methyl}piperazin-1-yl)-N-({4-[(1-cyclopentylpiperidin-4-yl)amino]-3-nitrophenyl}sulfonyl)-2-(1H-indol-5-yloxy)benzamide]: the Ki was 0.14 nM in test [1] and more than 660 nM in test [4]. Also, the results for the EC50 in test [2] and in test [3] were 35 nM and more than 50000 nM, respectively.
Consider `O=C(NS(=O)(=O)c1ccc(NCC2CCOCC2)c([N+](=O)[O-])c1)c1ccc(N2CCN(Cc3ccccc3-c3ccc(Cl)cc3)CC2)cc1Oc1ccc2[nH]ccc2c1` [Example 40, 4-{4-[(4′-chloro-1,1′-biphenyl-2-yl)methyl]piperazin-1-yl}-2-(1H-indol-5-yloxy)-N-({3-nitro-4-[(tetrahydro-2H-pyran-4-ylmethyl)amino]phenyl}sulfonyl)benzamide], for which the Ki in test [1] is 0.534 nM; in test [4], more than 660 nM. Further, the concentration giving a half-maximal response (EC50) is 165 nM in test [2] and more than 50000 nM in test [3].
On the same counts, the results for `O=C(NS(=O)(=O)c1ccc(NCC2CCOCC2)c([N+](=O)[O-])c1)c1ccc(N2CCN(Cc3ccccc3-c3ccc(Cl)cc3)CC2)cc1Oc1cccc2[nH]ccc12` [Example 45, 4-{4-[(4′-chloro-1,1′-biphenyl-2-yl)methyl]piperazin-1-yl}-2-(1H-indol-4-yloxy)-N-({3-nitro-4-[(tetrahydro-2H-pyran-4-ylmethyl)amino]phenyl}sulfonyl)benzamide] are 0.828 nM, more than 660 nM, 139 nM and more than 50000 nM.
The like results for `CN(C)CCCNc1ccc(S(=O)(=O)NC(=O)c2ccc(N3CCN(Cc4ccccc4-c4ccc(Cl)cc4)CC3)cc2Oc2cccc3[nH]ccc23)cc1[N+](=O)[O-]` [Example 46, 4-{4-[(4′-chloro-1,1′-biphenyl-2-yl)methyl]piperazin-1-yl}-N-[(4-{[3-(dimethylamino)propyl]amino}-3-nitrophenyl)sulfonyl]-2-(1H-indol-4-yloxy)benzamide] were, in that order, 0.159 nM, 19 nM, 41 nM and 30000 nM.
On the same counts, the results for `CC1(C)CCC(CN2CCN(c3ccc(C(=O)NS(=O)(=O)c4ccc(NCCCN5CCOCC5)c([N+](=O)[O-])c4)c(Oc4ccc5[nH]ccc5c4)c3)CC2)=C(c2ccc(Cl)cc2)C1` [Example 52, 4-(4-{[2-(4-chlorophenyl)-4,4-dimethylcyclohex-1-en-1-yl]methyl}piperazin-1-yl)-2-(1H-indol-5-yloxy)-N-({4-[(3-morpholin-4-ylpropyl)amino]-3-nitrophenyl}sulfonyl)benzamide] are 0.239 nM, 79.8 nM, 16 nM and more than 50000 nM.
Turning to `CN(C)CCCNc1ccc(S(=O)(=O)NC(=O)c2ccc(N3CCN(CC4=C(c5ccc(Cl)cc5)CC(C)(C)CC4)CC3)cc2Oc2ccc3[nH]ccc3c2)cc1[N+](=O)[O-]` [Example 53, 4-(4-{[2-(4-chlorophenyl)-4,4-dimethylcyclohex-1-en-1-yl]methyl}piperazin-1-yl)-N-[(4-{[3-(dimethylamino)propyl]amino}-3-nitrophenyl)sulfonyl]-2-(1H-indol-5-yloxy)benzamide], the figures for the Ki in test [1] and in test [4] were 0.081 nM and 4.85 nM, respectively. The EC50 in test [2] was 11 nM; in test [3], 18300 nM.
With `CC1(C)CCC(c2ccc(Cl)cc2)=C(CN2CCN(c3ccc(C(=O)NS(=O)(=O)c4ccc(NCCCN5CCOCC5)c([N+](=O)[O-])c4)c(Oc4cccc5[nH]ccc45)c3)CC2)C1` [Example 54, 4-(4-{[2-(4-chlorophenyl)-5,5-dimethylcyclohex-1-en-1-yl]methyl}piperazin-1-yl)-2-(1H-indol-4-yloxy)-N-({4-[(3-morpholin-4-ylpropyl)amino]-3-nitrophenyl}sulfonyl)benzamide], the figures for the Ki in test [1] and in test [4] were 0.757 nM and 82 nM, respectively. Besides, the EC50 in test [2] is 64 nM; in test [3], more than 50000 nM.
On to `CC1(C)CCC(CN2CCN(c3ccc(C(=O)NS(=O)(=O)c4ccc(NCCCN5CCOCC5)c([N+](=O)[O-])c4)c(Oc4cccc5[nH]ccc45)c3)CC2)=C(c2ccc(Cl)cc2)C1` [Example 55, 4-(4-{[2-(4-chlorophenyl)-4,4-dimethylcyclohex-1-en-1-yl]methyl}piperazin-1-yl)-2-(1H-indol-4-yloxy)-N-({4-[(3-morpholin-4-ylpropyl)amino]-3-nitrophenyl}sulfonyl)benzamide], for which the Ki in test [1] was determined as 0.196 nM; in test [4], 24.9 nM. In addition, the EC50 worked out at 22 nM in test [2] and 36000 nM in test [3].
On the same counts, the results for `CN(C)CCCNc1ccc(S(=O)(=O)NC(=O)c2ccc(N3CCN(CC4=C(c5ccc(Cl)cc5)CCC(C)(C)C4)CC3)cc2Oc2cccc3[nH]ccc23)cc1[N+](=O)[O-]` [Example 56, 4-(4-{[2-(4-chlorophenyl)-5,5-dimethylcyclohex-1-en-1-yl]methyl}piperazin-1-yl)-N-[(4-{[3-(dimethylamino)propyl]amino}-3-nitrophenyl)sulfonyl]-2-(1H-indol-4-yloxy)benzamide] are 0.268 nM, 12.9 nM, 49 nM and 27000 nM.
In the case of `CN(C)CCCNc1ccc(S(=O)(=O)NC(=O)c2ccc(N3CCN(CC4=C(c5ccc(Cl)cc5)CC(C)(C)CC4)CC3)cc2Oc2cccc3[nH]ccc23)cc1[N+](=O)[O-]` [Example 57, 4-(4-{[2-(4-chlorophenyl)-4,4-dimethylcyclohex-1-en-1-yl]methyl}piperazin-1-yl)-N-[(4-{[3-(dimethylamino)propyl]amino}-3-nitrophenyl)sulfonyl]-2-(1H-indol-4-yloxy)benzamide], the Ki in test [1] came out at 0.068 nM; in test [4] it was 4.67 nM. The EC50 is 16 nM in test [2] and 16800 nM in test [3].
With `COc1ccc(C2=C(CN3CCN(c4ccc(C(=O)NS(=O)(=O)c5ccc(NCCCN6CCCC6)c([N+](=O)[O-])c5)c(Oc5cccc6[nH]ccc56)c4)CC3)CCC(C)(C)C2)cc1` [Example 68, 2-(1H-indol-4-yloxy)-4-(4-{[2-(4-methoxyphenyl)-4,4-dimethylcyclohex-1-en-1-yl]methyl}piperazin-1-yl)-N-({3-nitro-4-[(3-pyrrolidin-1-ylpropyl)amino]phenyl}sulfonyl)benzamide], the Ki in test [1] is 1.23 nM; in test [4] it was 14 nM. The EC50 in test [2] is 44 nM; in test [3], more than 50000 nM.
